Experimental data taken from US20100087413A1, “Prevention and treatment of inflammation-induced and/or immune-mediated bone loss” (priority 2003, published 2010).
Marks after values point to notes of the source that are not given here.

Target: T1, human 11β-HSD1 (Homo sapiens, UniProt P28845)
T1 construct: expressed in transfected cells; host or cells: HEK-293 cells, stably transfected; cell lysate
Assay: 11β-HSD1 reductase activity (conversion of radiolabelled cortisone to cortisol) in lysates of stably transfected HEK-293 cells
Type: biochemical
Conditions: 20 μM compound, 100 nM cortisone substrate, HEK-293 lysate
Experimental: (§1) Cells were grown in 10 cm dishes to 80% confluence and incubated for 16 h in steroid-free medium (charcoal-treated fetal calf serum (FCS) from HyClone, Logan, Utah). Cells were rinsed once with phosphate-buffered saline (PBS), detached and centrifuged for 3 min at 150×g. The supernatant was removed and the cell pellet quick-frozen in a dry-ice ethanol bath. At the day of experiment, cell pellets were resuspended in buffer TS2 (100 mM NaCl, 1 mM EGTA, 1 mM EDTA, 1 mM MgCl2, 250 mM sucrose, 20 mM Tris-HCl, pH 7.4), sonicated and activities determined immediately. The rate of conversion of cortisol to cortisone or the reverse reaction was determined in 96-well optical PCR reaction plates (Applied Biosystems, Foster City, Calif.) in a final volume of 22 μl, and the tubes were capped during the reaction to avoid evaporation.
Reactions were initiated simultaneously by adding 10 μl of cell lysate and 12 μl of TS2 buffer containing the appropriate concentration of the inhibitory compound to be tested, NADPH, 30 nCi of [1,2,6,7-^3H]-cortisone and unlabeled cortisone, whereby final concentrations were 400 μM NADPH and 100 nM cortisone. Activities were determined immediately after cell disruption by measuring the conversion of radiolabeled cortisone to cortisol for 10 min.
(§2) Enzyme kinetics were analyzed by non-linear regression using Data Analysis Toolbox (MDL Information Systems Inc.) assuming first-order rate kinetics.
(§3) Assay with 20 μM of the corresponding compound in the reaction mixture, added simultaneously with the substrate:
(§4) Determination of IC50 values, using 7 different inhibitor concentrations at factor 2 intervals: […]

T1 sequence (P28845 whole entry): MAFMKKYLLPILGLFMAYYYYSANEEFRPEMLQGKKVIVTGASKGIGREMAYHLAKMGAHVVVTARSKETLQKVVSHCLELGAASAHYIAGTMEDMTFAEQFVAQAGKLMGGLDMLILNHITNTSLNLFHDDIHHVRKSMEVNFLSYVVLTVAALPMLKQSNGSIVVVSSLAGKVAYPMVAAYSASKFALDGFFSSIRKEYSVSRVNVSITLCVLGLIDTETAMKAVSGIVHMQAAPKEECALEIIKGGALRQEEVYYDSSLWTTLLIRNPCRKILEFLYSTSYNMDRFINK

Compound | 11β-HSD1 % of control
CCN(CC(O)COc1cc(C)c(Cl)c(C)c1)S(=O)(=O)O (stereo not drawn) [BNW1] | 102.1 % of control
COc1ccc(OC)c(C2C(C(=O)c3ccc(Br)cc3)=C(O)C(=O)N2CCCn2ccnc2)c1 (stereo not drawn) [BNW2] | 78.84 % of control
CCCCOc1ccc(C(=O)C2=C(O)C(=O)N(CCOC)C2c2cccnc2)c(C)c1 (stereo not drawn) [BNW3] | 60.25 % of control
Cc1nn(CC(=O)Nc2sc(C)c(C)c2C(N)=O)c(C)c1[N+](=O)[O-] [BNW4] | 82.24 % of control
Cc1n[nH]c(O)c1C(c1ccc(-c2ccc(Cl)c(C(=O)O)c2)o1)c1c(O)n[nH]c1C [BNW5] | 69.75 % of control
COc1ccc(C(=O)CNc2cccc(Cl)c2Cl)c(C(F)(F)F)c1 [BNW6] | 79.64 % of control
COc1ccc(CCNC(=O)C23CCC(C)(C(=O)C2=O)C3(C)C)cc1OC (stereo not drawn) [BNW7] | 9.593* % of control
NC(=O)c1c(NC(=O)C2CC=CCC2C(=O)O)sc2c1CCCCC2 (stereo not drawn) [BNW8] | 41.71 % of control
COCCC1C(=O)C(O)=C(C(=O)c2ccc(OC)c(C)c2)C1c1ccc(Cl)cc1Cl (stereo not drawn) [BNW9] | 30.65 % of control
Cc1cccc(C)c1C1C(SCC(=O)Nc2c(Cl)cccc2Cl)=NN=C1c1cccc([S+]([O-])N(C)C)c1 (stereo not drawn) [BNW11] | 70.1 % of control
CCN(CC)S(=O)(=O)c1ccc(Cl)c(C(=O)Nc2nc3ccc(S(C)(=O)=O)cc3s2)c1 [BNW12] | 85.36 % of control
COC(=O)[C@@]1(C)CC[C@]2(C)CC[C@]3(C)C(=CC(=O)[C@@H]4[C@@]5(C)CC[C@H](Oc6ccccc6C(=O)O)C(C)(C)[C@@H]5CC[C@]43C)[C@@H]2C1 [BNW13] | 3.879* % of control
CC1(C)[C@@H](OCO)CC[C@]2(C)[C@H]3C(=O)C=C4C5=C[C@@](C)(C(=O)O)CC[C@]5(C)CC[C@@]4(C)[C@]3(C)CC[C@@H]12 [BNW15] | 50.37 % of control

Same assay, conditions: Mittelwert (mean) of determinations 1-3; read-out: IC 50 11β-HSD1, Mittelwert

Compound | IC50 [µM]
COc1ccc(CCNC(=O)C23CCC(C)(C(=O)C2=O)C3(C)C)cc1OC (stereo not drawn) [BNW7] | 2.03
COC(=O)[C@@]1(C)CC[C@]2(C)CC[C@]3(C)C(=CC(=O)[C@@H]4[C@@]5(C)CC[C@H](Oc6ccccc6C(=O)O)C(C)(C)[C@@H]5CC[C@]43C)[C@@H]2C1 [BNW13] | 0.691

Target: T2, human 11β-HSD2 (Homo sapiens, UniProt P80365)
T2 construct: expressed in transfected cells; host or cells: HEK-293 cells, stably transfected; cell lysate
T2 sequence (P80365 1-405): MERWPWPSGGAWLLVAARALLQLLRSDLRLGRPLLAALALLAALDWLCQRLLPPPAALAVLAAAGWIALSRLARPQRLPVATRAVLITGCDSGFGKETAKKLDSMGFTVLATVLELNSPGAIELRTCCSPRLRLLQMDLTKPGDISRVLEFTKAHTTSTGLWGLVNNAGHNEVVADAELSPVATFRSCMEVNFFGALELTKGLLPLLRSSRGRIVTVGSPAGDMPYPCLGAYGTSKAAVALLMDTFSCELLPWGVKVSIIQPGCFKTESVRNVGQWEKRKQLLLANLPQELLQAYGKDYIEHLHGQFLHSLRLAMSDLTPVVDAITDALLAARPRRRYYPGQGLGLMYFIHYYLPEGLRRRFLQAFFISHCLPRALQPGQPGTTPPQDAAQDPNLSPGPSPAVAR
Assay: 11β-HSD2 oxidase activity (conversion of radiolabelled cortisol to cortisone) in lysates of stably transfected HEK-293 cells
Type: biochemical
Conditions: 20 μM compound, 25 nM cortisol substrate, HEK-293 lysate
Experimental: as §1
Reactions were initiated by simultaneously adding 10 μl of cell lysate and 12 μl of TS2 buffer containing the appropriate concentration of the inhibitory compound to be tested, NAD^+, 30 nCi of [1,2,6,7-^3H]-cortisol and unlabeled cortisol. […] Stock solutions of the inhibitors in methanol or DMSO were diluted in TS2 buffer to yield the appropriate concentrations, whereby the concentration of methanol or DMSO in the reactions were kept below 0.1%. Control reactions with or without 0.1% of the solvent were performed. Incubation was at 37° C. for 10 min with shaking, reactions were terminated by adding 10 μl of stop solution containing 2 mM of unlabeled cortisol and cortisone dissolved in methanol. The conversion of radiolabeled cortisol was determined by separation of cortisol and cortisone using TLC and a solvent system of 9:1 (v/v) chloroform:methanol, followed by scintillation counting.
as §2, §3, §4

Compound | 11β-HSD2 % of control
CCN(CC(O)COc1cc(C)c(Cl)c(C)c1)S(=O)(=O)O (stereo not drawn) [BNW1] | 96.77 % of control
COc1ccc(OC)c(C2C(C(=O)c3ccc(Br)cc3)=C(O)C(=O)N2CCCn2ccnc2)c1 (stereo not drawn) [BNW2] | 77.95 % of control
CCCCOc1ccc(C(=O)C2=C(O)C(=O)N(CCOC)C2c2cccnc2)c(C)c1 (stereo not drawn) [BNW3] | 53.57 % of control
Cc1nn(CC(=O)Nc2sc(C)c(C)c2C(N)=O)c(C)c1[N+](=O)[O-] [BNW4] | 95.05 % of control
Cc1n[nH]c(O)c1C(c1ccc(-c2ccc(Cl)c(C(=O)O)c2)o1)c1c(O)n[nH]c1C [BNW5] | 97.47 % of control
COc1ccc(C(=O)CNc2cccc(Cl)c2Cl)c(C(F)(F)F)c1 [BNW6] | 145 % of control
COc1ccc(CCNC(=O)C23CCC(C)(C(=O)C2=O)C3(C)C)cc1OC (stereo not drawn) [BNW7] | 139.5 % of control
NC(=O)c1c(NC(=O)C2CC=CCC2C(=O)O)sc2c1CCCCC2 (stereo not drawn) [BNW8] | 102.7 % of control
COCCC1C(=O)C(O)=C(C(=O)c2ccc(OC)c(C)c2)C1c1ccc(Cl)cc1Cl (stereo not drawn) [BNW9] | 77.43 % of control
Cc1cccc(C)c1C1C(SCC(=O)Nc2c(Cl)cccc2Cl)=NN=C1c1cccc([S+]([O-])N(C)C)c1 (stereo not drawn) [BNW11] | 120.9 % of control
CCN(CC)S(=O)(=O)c1ccc(Cl)c(C(=O)Nc2nc3ccc(S(C)(=O)=O)cc3s2)c1 [BNW12] | 132.1 % of control
COC(=O)[C@@]1(C)CC[C@]2(C)CC[C@]3(C)C(=CC(=O)[C@@H]4[C@@]5(C)CC[C@H](Oc6ccccc6C(=O)O)C(C)(C)[C@@H]5CC[C@]43C)[C@@H]2C1 [BNW13] | 14.37* % of control
CC1(C)[C@@H](OCO)CC[C@]2(C)[C@H]3C(=O)C=C4C5=C[C@@](C)(C(=O)O)CC[C@]5(C)CC[C@@]4(C)[C@]3(C)CC[C@@H]12 [BNW15] | 56.95 % of control

Same assay, conditions: Mittelwert (mean) of the determinations; read-out: IC 50 11β-HSD2, Mittelwert

Compound | IC50 [µM]
COC(=O)[C@@]1(C)CC[C@]2(C)CC[C@]3(C)C(=CC(=O)[C@@H]4[C@@]5(C)CC[C@H](Oc6ccccc6C(=O)O)C(C)(C)[C@@H]5CC[C@]43C)[C@@H]2C1 [BNW13] | 0.281

Same assay, conditions: determination 1; 7 inhibitor concentrations at factor 2 intervals

Compound | IC 50 11β-HSD2, determination 1
COc1ccc(CCNC(=O)C23CCC(C)(C(=O)C2=O)C3(C)C)cc1OC (stereo not drawn) [BNW7] | did not inhibit
COC(=O)[C@@]1(C)CC[C@]2(C)CC[C@]3(C)C(=CC(=O)[C@@H]4[C@@]5(C)CC[C@H](Oc6ccccc6C(=O)O)C(C)(C)[C@@H]5CC[C@]43C)[C@@H]2C1 [BNW13] | out of range

Same assay, conditions: determination 2; 7 inhibitor concentrations at factor 2 intervals

Compound | IC 50 11β-HSD2, determination 2
COc1ccc(CCNC(=O)C23CCC(C)(C(=O)C2=O)C3(C)C)cc1OC (stereo not drawn) [BNW7] | did not inhibit

Same assay, conditions: determination 3; 7 inhibitor concentrations at factor 2 intervals

Compound | IC 50 11β-HSD2, determination 3
COc1ccc(CCNC(=O)C23CCC(C)(C(=O)C2=O)C3(C)C)cc1OC (stereo not drawn) [BNW7] | did not inhibit
